What was measured:
Type in all cases: cell-based, human
GBM12 = experiment: Cignal 45-Pathway Reporter Array; settings: tofacitinib 1 μM, 24 hours
CDC42 = experiment: Cdc42 pull down assay (CDC42-GTP); settings: 24 hours, GBM12 and GBM6
Experimental: The amount of GTP-bound RhoA and Cdc42 were measured using RhoA and Cdc42 pull down assay kit (Cell Signaling) according to the protocol provided by the manufacturer. Briefly, cell lysates were incubated with either glutathione S-transferase (GST)-Rhotekin-RBD or GST-PAK-PBD beads 4° C. for 1 hour to pull down GTP-bound RhoA or Cdc42. Beads were washed four times in washing buffer and re-suspended in lysis buffer. RhoA-GTP and Cdc42-GTP were detected by Western blot using RhoA and Cdc42 antibodies.

DOCK7 and BIN3 = experiment: Co-immunoprecipitation of BIN3 and DOCK7; settings: 24 hours
Experimental: Cells were treated with 50 ng/ml EGF for 24 hours, BIN3 (sc-514396AC, Santa Cruz Biotechnology) or mouse IgG antibodies were incubated with whole cell lysates overnight at 4° C., and the mixtures were then incubated with 40 μl protein A/G slurry beads (Sigma) for 2 hours at 4° C. Beads were washed three times with lysis buffer, and immunoprecipitates were boiled in loading buffer for 5 min, subjected to SDS-PAGE followed by Coomassie stain. Bands were cut from the gel and submitted for Mass Spectrometry Facility, UTSW, Dallas. To identify BIN3 and DOCK7 complexes in PDXs upon EGF treatment, cell lysates were immunoprecipitated with DOCK7 antibody or BIN3 antibody, and analyzed by Western blot using BIN3 antibody.
Referring to FIG. 9A-S, BIN3 reduces invasion by interacting with DOCK7. Heat map of spectral counts of the top BIN3 interacting proteins identified by mass spectrometry in GBM12 treated with EGF (50 ng/ml) is shown in FIG. 9A. Western blot analysis of immunoprecipitated extracts from EGF-treated GBM12, GBM6, and GBM26 is illustrated in FIG. 9B. Cell lysates from cells treated with EGF (50 ng/ml) or control vehicle for 24 hours were immunoprecipitated by DOCK7 antibody, followed by Western blot for BIN3. Western blot analysis of BIN3 antibody immunoprecipitated extracts from GBM12, GBM6, and GBM26 24 hours after EGF or vehicle treatment is illustrated in FIG. 9C. […]

BIN3 promoter = experiment: ChIP assay of EGR1 occupancy; settings: EGF, 24 hours; GBM12 and GBM6
Experimental: Chromatin immunoprecipitation (ChIP) assays were performed using a ChIP assay kit (Upstate Biotechnology, Lake Placid, N.Y., USA). Cells were treated with or without EGF for the indicated time points or transfected with indicated vectors for 48 hours followed by cell fixation, lysis, chromatin shearing, antibody incubation and washing according to the manufacturer's protocol. ChIP grade anti-EGR1 (4153) or anti-Nanog antibody (5232) antibody from Cell Signaling Technology (Danvers, Mass.) was used to selectively precipitate the corresponding protein-DNA complex. RT-PCR was performed using ViiA 7 Real-Time PCR System (Applied Biosystems) to measure the relative amounts of ChIP DNA and results were quantified relative to inputs. The data are expressed as percentage of input. Following are primer sets: BIN3_Forward: 5′-[…]-3′ (SEQ ID NO:1); BIN3_Reverse: 5′-[…]-3′ (SEQ ID NO:2); EMP1_Forward: 5′-[…]-3′ (SEQ ID NO:3); EMP1_Reverse: 5′-[…]-3′ (SEQ ID NO:4).
Referring to FIG. 8A-D, EGF induces EGR1 activity and enrichment on the BIN3 promoter. […] Cells were transiently transfected with EGR1 firefly luciferase reporter vector and Renilla luciferase vector for 48 hours, EGF was added for additional 2 or 24 hours prior to measuring luciferase activity. […] Cells were treated with or without EGF for 24 hours. ChIP assay was performed as described elsewhere herein. IgG was used as negative control. […]

Mayo PDX cells = experiment: Matrigel invasion assay; settings: low-dose EGF (5 ng/ml), 24 hours; GBM12 and GBM6

In the case of `C[C@@H]1CCN(C(=O)CC#N)C[C@@H]1N(C)c1ncnc2[nH]ccc12` [tofacitinib], the transcription factor activity (GBM12) is reported as “upregulates multiple transcription factors”.

With HGF: the ligand for Met the CDC42 activity (CDC42; HGF 20 ng/ml) was “increase of CDC42 activity was not detected” and the “association between BIN3 and DOCK7” value (DOCK7 and BIN3; HGF 20 ng/ml, GBM12 and GBM6) was “not detected”.

For “EGF: Recombinant human EGF (AF-100) from Peprotech; EGFR ligand”, the CDC42 activity (CDC42; EGF 50 ng/ml) was “decreases the activity”, the “EGR1 occupancy of BIN3 promoter” value (BIN3 promoter) was “occupies the BIN3 promoter” and the “physical association between DOCK7 and BIN3” value (DOCK7 and BIN3; EGF 50 ng/ml, GBM12, GBM6, GBM26) was “significantly induced a physical association”. The cell invasion (Mayo PDX cells) was “suppressed invasion”.
